From patent publication US7964531B2, “3-phenoxy-4-pyridazinol derivatives and herbicidal composition containing the same” (Mitsui Chemicals Agro, Inc., priority 2001, dated 2011)
Structures can show the parent of a compound that is named as a salt.

Row | Compound | melting point
1 | Cc1cccc(C2CC2)c1Oc1nnc(Cl)cc1OC(=O)N(CCCl)CCCl | 166 to 167 °C
2 | Cc1ccc(Cl)cc1Oc1nnc(Cl)cc1O [Compound No. 618, 6-Chloro-3-(5-chloro-2-methylphenoxy)-4-pyridazinol] | 174 to 180 °C
3 | CSc1c(C)cc(C)cc1Oc1nnc(Cl)cc1O [Compound No. 1027, 6-Chloro-3-[3,5-dimethyl-2-(methylsulfanyl)phenoxy]-4-pyridazinol] | 213 to 214 °C
4 | COc1ccccc1Oc1nnc(Cl)cc1OS(=O)(=O)c1ccc(C)cc1 [Compound No. 2232, 6-Chloro-3-(2-methoxyphenoxy)-4-pyridazinyl 4-methylbenzenesulfonate] | 153 to 157 °C
5 | Cc1cccc(Br)c1Oc1nnc(Cl)cc1O [Compound No. 758, 3-(2-Bromo-6-methylphenoxy)-6-chloro-4-pyridazinol] | 242 to 243 °C
6 | C=C(C)C(=O)Oc1cc(Cl)nnc1Oc1c(C)cccc1C1CC1 [Compound No. 2677, 6-Chloro-3-(2-cyclopropyl-6-methylphenoxy)-4-pyridazinyl 2-methylacrylate] | 98 to 100 °C
7 | Oc1cc(Cl)nnc1Oc1cccc2c1CCC2 [Compound No. 506, 6-Chloro-3-(2,3-dihydro-1H-inden-4-yloxy)-4-pyridazinol] | 230 to 232 °C
8 | Oc1cc(Cl)nnc1Oc1c(C2CC2)cccc1C1CC1 [Compound No. 931, 6-Chloro-3-(2,6-dicyclopropylphenoxy)-4-pyridazinol] | 232 to 234 °C
9 | CON=C(C)c1ccc(Oc2nnc(Cl)cc2O)c(C)c1 [Compound No. 2571, 1-{4-[(6-Chloro-4-hydroxy-3-pyridazinyl)oxy]-3-methylphenyl}ethanone O-methyloxime] | 189 to 192 °C
10 | Oc1cc(Cl)nnc1Oc1ccccc1-c1nc2ccccc2o1 [Compound No. 375, 3-[2-(1,3-Benzoxazol-2-yl)phenoxy]-6-chloro-4-pyridazinol] | 165 to 167 °C
11 | Cc1c(Cl)cccc1Oc1nnc(Cl)cc1O [Compound No. 454, 6-Chloro-3-(3-chloro-2-methylphenoxy)-4-pyridazinol] | 250 to 252 °C
12 | CC(C)c1ccccc1Oc1nnccc1O [Compound No. 6, 3-(2-Isopropylphenoxy)-4-pyridazinol] | 181.5 to 182 °C
13 | Cc1ccc(S(=O)(=O)Oc2ccccc2Oc2nnc(Cl)cc2OS(=O)(=O)c2ccc(C)cc2)cc1 (as salt: benzene sulfonate) [Compound No. 2233, 2-[(6-Chloro-4-{[(4-methylphenyl)sulfonyl]oxy}-3-pyridazinyl)oxy]phenyl 4-methylbenzene sulfonate] | 125.5 to 126.5 °C
14 | CCOCc1ccccc1Oc1nnc(Cl)cc1O [Compound No. 325, 6-Chloro-3-[2-(ethoxymethyl)phenoxy]-4-pyridazinol] | 173 to 174 °C
15 | CC(=O)Oc1cc(Cl)nnc1Oc1c(C)cccc1C1CC1 [Compound No. 1151, 6-Chloro-3-(2-cyclopropyl-6-methylphenoxy)-4-pyridazinyl acetate] | 98 to 101 °C
16 | Cc1cc(C)c(Cl)c(Oc2nnc(Cl)cc2O)c1C [Compound No. 2599, 6-Chloro-3-(2-chloro-3,5,6-trimethylphenoxy)-4-pyridazinol] | 298 to 300 °C
17 | Oc1cc(Cl)nnc1Oc1ccc(Cl)cc1 [Compound No. 427, 6-Chloro-3-(4-chlorophenoxy)-4-pyridazinol] | 226 to 231 °C
18 | COc1c(C)cc(C)c(C)c1Oc1nnc(Cl)cc1O [Compound No. 1128, 6-Chloro-3-(2-methoxy-3,5,6-trimethylphenoxy)-4-pyridazinol] | 209 to 210 °C
19 | CC(C)c1cccc(Cl)c1Oc1nnc(Cl)cc1O [Compound No. 738, 6-Chloro-3-(2-chloro-6-isopropylphenoxy)-4-pyridazinol] | 218 to 233 °C
20 | Cc1cccc(C2CC2)c1Oc1nnc(Cl)cc1OC(=O)n1c(C)ccc1C [Compound No. 3630, 6-Chloro-3-(2-cyclopropyl-6-methylphenoxy)-4-pyridazinyl 2,5-dimethyl-1H-pyrrole-1-carboxylate] | 208 to 210 °C
21 | Cc1ccc(S(=O)(=O)Oc2cc(Cl)nnc2Oc2cccc3ccccc23)cc1 [Compound No. 2240, 6-Chloro-3-(1-naphthyloxy)-4-pyridazinyl 4-methylbenzenesulfonate] | 92 to 94 °C
22 | O=S(=O)(Oc1cc(Cl)nnc1Oc1ccccc1C1CC1)C(F)(F)F (as salt: methanesulfonate) [Compound No. 2081, 6-Chloro-3-(2-cyclopropylphenoxy)-4-pyridazinyl trifluoromethanesulfonate] | 54 to 61 °C
23 | Cc1cccc(C2CC2)c1Oc1nnc(Cl)cc1OC(=O)N(C)c1ccccn1 | 140 to 147 °C
24 | Cc1cccc(C2CC2)c1Oc1nnc(Cl)cc1OC(=O)c1cc2ccccc2s1 [Compound No. 3504, 6-Chloro-3-(2-cyclopropyl-6-methylphenoxy)-4-pyridazinyl 1-benzothiophene-2-carboxylate] | 105 to 107 °C
25 | Oc1cc(Cl)nnc1Oc1ccc(C2CC2)cc1 [Compound No. 434, 6-Chloro-3-(4-cyclopropylphenoxy)-4-pyridazinol] | 221 to 227 °C

Row | Compound | melting point
26 | COc1cccc(Oc2nnc(Cl)cc2OC(=O)c2ccccc2C)c1 [Compound No. 1458, 6-Chloro-3-(3-methoxyphenoxy)-4-pyridazinyl 2-methylbenzoate] | 66 to 67 °C
27 | Cc1ccccc1Oc1nnc(Cl)cc1OS(=O)(=O)c1ccc(Cl)cc1 [Compound No. 2198, 6-Chloro-3-(2-methylphenoxy)-4-pyridazinyl 4-chlorobenzenesulfonate] | 93 to 94 °C
28 | Cc1cccc(Oc2nnc(Cl)cc2O)c1C1CC1 [Compound No. 472, 6-Chloro-3-(2-cyclopropyl-3-methylphenoxy)-4-pyridazinol] | 197 to 198 °C
29 | CCC(C)c1ccccc1Oc1nnc(Cl)cc1O (stereo not shown) [Compound No. 135, 3-(2-s-Butylphenoxy)-6-chloro-4-pyridazinol] | 158 to 159 °C
30 | Cc1cc(Br)c(C)c(Br)c1Oc1nnc(Cl)cc1O [Compound No. 1118, 6-Chloro-3-(2,4-dibromo-3,6-dimethylphenoxy)-4-pyridazinol] | 241 to 248 °C
31 | Cc1ccccc1C(=O)Oc1cc(Cl)nnc1Oc1ccccc1C1CCCCC1 [Compound No. 1455, 6-Chloro-3-(2-cyclohexylphenoxy)-4-pyridazinyl 2-methylbenzoate] | 89 to 91 °C
32 | CCOC1CC1c1ccccc1Oc1nnc(Cl)cc1O (stereo not shown) [Compound No. 249, 6-Chloro-3-[2-(2-ethoxycyclopropyl)phenoxy]-4-pyridazinol] | 145 to 152 °C
33 | C[Si](C)(C)c1ccc(Oc2nnc(Cl)cc2OC(=O)c2ccccc2)cc1 | 100 to 102 °C
34 | COCc1ccccc1Oc1nnc(Cl)cc1O [Compound No. 324, 6-Chloro-3-[2-(methoxymethyl)phenoxy]-4-pyridazinol] | 211 to 212 °C
35 | CC(C)c1ccc(Oc2nnc(Cl)cc2O)cc1 [Compound No. 432, 6-Chloro-3-(4-isopropylphenoxy)-4-pyridazinol] | 233 to 235 °C
36 | CC(C)=Cc1ccccc1Oc1nnc(Cl)cc1O [Compound No. 2540, 6-Chloro-3-[2-(2-methyl-1-propenyl)phenoxy]-4-pyridazinol] | 149 to 152 °C
37 | Cc1ccc(S(=O)(=O)Oc2cc(Cl)nnc2Oc2ccc(Cl)cc2C)cc1 [Compound No. 2246, 6-Chloro-3-(4-chloro-2-methylphenoxy)-4-pyridazinyl 4-methylbenzenesulfonate] | 115 to 116 °C
38 | Cc1ccc2c(c1Oc1nnc(Cl)cc1O)OCC2 [Compound No. 1096, 6-Chloro-3-[(6-methyl-2,3-dihydro-1-benzofuran-7-yl)oxy]-4-pyridazinol] | 217 to 219 °C
39 | COc1ccc(Cl)cc1Oc1nnc(Cl)cc1O [Compound No. 701, 3-(5-Chloro-2-methoxyphenoxy)-6-chloro-4-pyridazinol] | 143 to 155 °C
40 | Cc1ccc(S(=O)(=O)Oc2cc(Cl)nnc2Oc2ccc(C(C)(C)C)cc2Br)cc1 [Compound No. 2245, 3-(2-Bromo-4-tert-butylphenoxy)-6-chloro-4-pyridazinyl 4-methylbenzenesulfonate] | 110 to 112 °C
41 | Oc1cc(Cl)nnc1Oc1cccc2c1CCO2 [Compound No. 528, 6-Chloro-3-(2,3-dihydro-1-benzofuran-4-yloxy)-4-pyridazinol] | 219 to 221 °C
42 | N#Cc1ccc(C2CC2)c(Oc2nnc(Cl)cc2O)c1 [Compound No. 667, 3-[(6-Chloro-4-hydroxy-3-pyridazinyl)oxy]-4-cyclopropylbenzonitrile] | 211 to 212 °C
43 | Cc1coc2cccc(Oc3nnc(Cl)cc3O)c12 [Compound No. 532, 6-Chloro-3-[(3-methyl-1-benzofuran-4-yl)oxy]-4-pyridazinol] | 218 to 225 °C
44 | Cc1cc(C)c(Oc2nnc(Cl)cc2O)c(C2CC2)c1 [Compound No. 1123, 6-Chloro-3-(2-cyclopropyl-4,6-dimethylphenoxy)-4-pyridazinol] | 215 to 217 °C
45 | C=C(C)c1ccccc1Oc1nnc(Cl)cc1O [Compound No. 304, 6-Chloro-3-(2-isopropenylphenoxy)-4-pyridazinol] | 187 to 188 °C
46 | Cc1ccc(S(=O)(=O)Oc2cc(Cl)nnc2Oc2c(C)cccc2C2CC2)cc1 [Compound No. 2265, 6-Chloro-3-(2-cyclopropyl-6-methylphenoxy)-4-pyridazinyl 4-methylbenzenesulfonate] | 85 to 87 °C
47 | Oc1cc(Cl)nnc1Oc1cccc(C(F)(F)F)c1Cl [Compound No. 446, 6-Chloro-3-[2-chloro-3-(trifluoromethyl)phenoxy]-4-pyridazinol] | 170 to 200 °C
48 | CCc1ccc(OC)cc1Oc1nnc(Cl)cc1O [Compound No. 635, 6-Chloro-3-(2-ethyl-5-methoxyphenoxy)-4-pyridazinol] | 124 to 126 °C
49 | Cc1c(Cl)ccc(Br)c1Oc1nnc(Cl)cc1O [Compound No. 1053, 3-(6-Bromo-3-chloro-2-methylphenoxy)-6-chloro-4-pyridazinol] | 254 to 260 °C
